Assay results reported in ChEMBL document CHEMBL1141727, “Isolation and cytotoxic evaluation of marine sponge-derived norterpene peroxides” (J Nat Prod, 1998).

Tests used:
Format in all cases: functional
[1] = tested on: HT-29; experiment: Growth inhibition of human HT-29 cells
[2] = tested on: MDA-MB-435; experiment: Growth inhibition of human MDA-MB-435 cells
[3] = tested on: SF-295; experiment: Growth inhibition of human SF295 cells
[4] = tested on: SF-539; experiment: Growth inhibition of human SF539 cells
[5] = tested on: NCI-H460; experiment: Growth inhibition of human NCI-H460 cells
[6] = tested on: EKVX; experiment: Growth inhibition of human EKVX cells
[7] = tested on: U-251; experiment: Growth inhibition of human U251 cells
[8] = tested on: 786-0; experiment: Growth inhibition of human 786-0 cells
[9] = tested on: CAKI-1; experiment: Growth inhibition of human Caki1 cells
[10] = tested on: MCF7; experiment: Growth inhibition of human MCF7 cells
[11] = tested on: UACC-62; experiment: Growth inhibition of human UACC62 cells
[12] = tested on: OVCAR-3; experiment: Growth inhibition of human OVCAR-3 cells
[13] = tested on: MC-38; experiment: Growth inhibition of mouse C38 cells assessed as zone units at 50 ug/disk by disk diffusion agar colony formation assay
[14] = tested on: CCRF-CEM; experiment: Growth inhibition of human CCRF-CEM cells
[15] = tested on: P388; experiment: Growth inhibition of mouse P388 cells assessed as zone units at 50 ug/disk by disk diffusion agar colony formation assay
[16] = tested on: SK-MEL-28; experiment: Growth inhibition of human SK-MEL-28 cells
[17] = tested on: NCI-H23; experiment: Growth inhibition of human NCI-H23 cells
[18] = tested on: A498; experiment: Growth inhibition of human A498 cells
[19] = tested on: Malme-3M; experiment: Growth inhibition of human MALME-3M cells
[20] = tested on: SK-OV-3; experiment: Growth inhibition of human SKOV3 cells
[21] = tested on: SNB-75; experiment: Growth inhibition of human SNB75 cells
[22] = tested on: M14; experiment: Growth inhibition of human M14 cells
[23] = tested on: HL-60(TB); experiment: Growth inhibition of human HL-60(TB) cells
[24] = tested on: MDA-MB-231; experiment: Growth inhibition of human MDA-MB-231 cells
[25] = tested on: SN12C; experiment: Growth inhibition of human SN12C cells
[26] = Growth inhibition of human Hs 578T cells
[27] = tested on: HOP-62; experiment: Growth inhibition of human HOP62 cells
[28] = tested on: NCI-H522; experiment: Growth inhibition of human NCI-H522 cells
[29] = tested on: OVCAR-5; experiment: Growth inhibition of human OVCAR5 cells
[30] = tested on: CX-1; experiment: Growth inhibition of human CX-1 cells assessed as zone units at 50 ug/disk by disk diffusion agar colony formation assay
[31] = tested on: T47D; experiment: Growth inhibition of human T47D cells
[32] = tested on: BT-549; experiment: Growth inhibition of human BT549 cells
[33] = tested on: UACC-257; experiment: Growth inhibition of human UACC257 cells
[34] = tested on: HOP-92; experiment: Growth inhibition of human HOP92 cells
[35] = tested on: HCT-116; experiment: Growth inhibition of human HCT116 cells
[36] = tested on: HCC 2998; experiment: Growth inhibition of human HCC2998 cells
[37] = tested on: MDA-N; experiment: Growth inhibition of human MDA-N cells
[38] = tested on: L1210; experiment: Growth inhibition of mouse L1210 cells assessed as zone units at 50 ug/disk by disk diffusion agar colony formation assay
[39] = tested on: KM12; experiment: Growth inhibition of human KM12 cells
[40] = tested on: NCI-H226; experiment: Growth inhibition of human NCI-H226 cells
[41] = tested on: A549; experiment: Growth inhibition of human A549 cells
[42] = tested on: PC-3; experiment: Growth inhibition of human PC3 cells
[43] = tested on: UO-31; experiment: Growth inhibition of human UO31 cells
[44] = tested on: SK-MEL-2; experiment: Growth inhibition of human SK-MEL-2 cells
[45] = tested on: IGROV-1; experiment: Growth inhibition of human IGROV1 cells
[46] = Growth inhibition of mouse M17/ADR cells assessed as zone units at 50 ug/disk by disk diffusion agar colony formation assay
[47] = tested on: SK-MEL-5; experiment: Growth inhibition of human SK-MEL-5 cells
[48] = tested on: NCI-H322M; experiment: Growth inhibition of human NCI-H322M cells
[49] = tested on: MOLT-4; experiment: Growth inhibition of human MOLT4 cells
[50] = tested on: SR; experiment: Growth inhibition of human SR cells
[51] = tested on: ACHN; experiment: Growth inhibition of human ACHN cells
[52] = tested on: OVCAR-8; experiment: Growth inhibition of human OVCAR8 cells
[53] = tested on: SW-620; experiment: Growth inhibition of human SW620 cells
[54] = Growth inhibition of human […] cells
[55] = tested on: HCT-15; experiment: Growth inhibition of human HCT15 cells
[56] = tested on: RXF 393; experiment: Growth inhibition of human […] cells
[57] = tested on: OVCAR-4; experiment: Growth inhibition of human OVCAR4 cells
[58] = tested on: COLO 205; experiment: Growth inhibition of human COLO205 cells
[59] = Growth inhibition of human MCF7/ADR resistant cells; conditions: NCI/ADR-RES
[60] = tested on: DU-145; experiment: Growth inhibition of human DU145 cells
[61] = Growth inhibition of human H116 cells assessed as zone units at 50 ug/disk by disk diffusion agar colony formation assay
[62] = tested on: PO3; experiment: Growth inhibition of mouse PO3 cells assessed as zone units at 50 ug/disk by disk diffusion agar colony formation assay

C=C1CCC[C@H]2[C@](C)(CC[C@]3(C)CC[C@H]([C@@H](C)C(=O)O)OO3)[C@@H](C)CC[C@]12C [SIGMOSCEPTRELLIN A]
GI50 [1]: 1570 nM
GI50 [2]: 1980 nM
GI50 [3]: 1460 nM
GI50 [4]: 1610 nM
GI50 [5]: 1590 nM
GI50 [6]: 1170 nM
GI50 [7]: 1730 nM
GI50 [8]: 610 nM
GI50 [9]: 1760 nM
GI50 [10]: 1780 nM
GI50 [11]: 2320 nM
GI50 [12]: 1850 nM
Activity [13]: 180 Zone units
GI50 [14]: 200 nM
Activity [15]: 230 Zone units
GI50 [16]: 3310 nM
GI50 [17]: 2020 nM
GI50 [18]: 1930 nM
GI50 [19]: 1200 nM
GI50 [20]: 1570 nM
GI50 [21]: 1080 nM
GI50 [22]: 3290 nM
GI50 [23]: 140 nM
GI50 [24]: 3710 nM
GI50 [25]: 1780 nM
GI50 [26]: 1080 nM
GI50 [27]: 1050 nM
GI50 [28]: 120 nM
GI50 [29]: 1740 nM
Activity [30]: 220 Zone units
GI50 [31]: 2000 nM
GI50 [32]: 1810 nM
GI50 [33]: 3680 nM
GI50 [34]: 290 nM
GI50 [35]: 1800 nM
GI50 [36]: 1550 nM
GI50 [37]: 1830 nM
Activity [38]: 230 Zone units
GI50 [39]: 940 nM
GI50 [40]: 110 nM
GI50 [41]: 1450 nM
GI50 [42]: 1690 nM
GI50 [43]: 1220 nM
GI50 [44]: 2170 nM
GI50 [45]: 120 nM
Activity [46]: 290 Zone units
GI50 [47]: 2680 nM
GI50 [48]: 1910 nM
GI50 [49]: 980 nM
GI50 [50]: 1130 nM
GI50 [51]: 1380 nM
GI50 [52]: 1570 nM
GI50 [53]: 1570 nM
GI50 [54]: 1710 nM
GI50 [55]: 1890 nM
GI50 [56]: 1220 nM
GI50 [57]: 1890 nM
GI50 [58]: 2180 nM

C=C1CCCC(C)(C)C1CC[C@]1(C)CC[C@@H]([C@@H](C)C(=O)O)OO1 (some centres not stated) [EPINUAPAPUIN B]
GI50 [1]: > 10000 nM
GI50 [2]: > 10000 nM
GI50 [3]: > 10000 nM
GI50 [4]: > 10000 nM
GI50 [5]: > 10000 nM
GI50 [6]: > 10000 nM
GI50 [7]: > 10000 nM
GI50 [8]: > 10000 nM
GI50 [9]: > 10000 nM
GI50 [10]: > 10000 nM
GI50 [11]: > 10000 nM
GI50 [12]: > 10000 nM
GI50 [14]: 2270 nM
Activity [15]: 160 Zone units
GI50 [16]: > 10000 nM
GI50 [17]: > 10000 nM
GI50 [18]: > 10000 nM
GI50 [19]: 3960 nM
GI50 [20]: > 10000 nM
GI50 [21]: > 10000 nM
GI50 [22]: > 10000 nM
GI50 [23]: 2060 nM
GI50 [24]: > 10000 nM
GI50 [25]: > 10000 nM
GI50 [26]: > 10000 nM
GI50 [27]: 9540 nM
GI50 [28]: 2060 nM
GI50 [29]: > 10000 nM
GI50 [31]: > 10000 nM
GI50 [32]: > 10000 nM
GI50 [33]: > 10000 nM
GI50 [34]: 6630 nM
GI50 [35]: > 10000 nM
GI50 [59]: > 10000 nM
GI50 [36]: > 10000 nM
GI50 [37]: > 10000 nM
Activity [38]: 160 Zone units
GI50 [60]: > 10000 nM
GI50 [39]: 5730 nM
GI50 [40]: > 10000 nM
GI50 [41]: > 10000 nM
GI50 [43]: > 10000 nM
GI50 [44]: > 10000 nM
GI50 [45]: 1730 nM
Activity [46]: 210 Zone units
Activity [61]: 70 Zone units
GI50 [47]: > 10000 nM
GI50 [48]: > 10000 nM
GI50 [49]: 7430 nM
GI50 [50]: 2720 nM
GI50 [51]: > 10000 nM
GI50 [52]: > 10000 nM
GI50 [53]: > 10000 nM
GI50 [54]: > 10000 nM
GI50 [55]: > 10000 nM
GI50 [56]: > 10000 nM
GI50 [57]: > 10000 nM
Activity [62]: 60 Zone units
GI50 [58]: > 10000 nM
